Measurements taken from PubChem BioAssay AID1845207 (Molecular Pharmacology Branch, DTP, NCI, 2023).

Tested on: NCI-H1876 tumor spheroid viability
Test: Anticancer human tumor NCI-H1876 cell line growth inhibition;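 also: spheroids exposed to compounds for seven days before the viability read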;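 as to viability, T/C: percent of DMSO vehicle control viability so 100% = vehicle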
Settings: spheroids with HUVEC and MSC; for IC50: curve of first compound; for viability, T/C: stronger effect = lower value
Procedure, shortened: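 Complex spheroids of malignant cells with endothelial cells and mesenchymal stem cells; agents alone or combined, from near clinical Cmax (or 10 microM if unknown) down in half-log steps, 0.25% DMSO final.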

[1] = second compound 30 pM, first compound 0.00949 µM
[2] = second compound 30 pM, first compound 0.03 µM
[3] = second compound 30 pM, first compound 0.0949 µM
[4] = second compound 30 pM, first compound 0.3 µM
[5] = second compound 30 pM, first compound 0.949 µM
[6] = second compound 30 pM, first compound 3 µM
[7] = second compound 94.9 pM, first compound 0.00949 µM
[8] = second compound 94.9 pM, first compound 0.03 µM
[9] = second compound 94.9 pM, first compound 0.0949 µM
[10] = second compound 94.9 pM, first compound 0.3 µM
[11] = second compound 94.9 pM, first compound 0.949 µM
[12] = second compound 94.9 pM, first compound 3 µM
[13] = second compound 0.0003 µM, first compound 0.00949 µM
[14] = second compound 0.0003 µM, first compound 0.03 µM
[15] = second compound 0.0003 µM, first compound 0.0949 µM
[16] = second compound 0.0003 µM, first compound 0.3 µM
[17] = second compound 0.0003 µM, first compound 0.949 µM
[18] = second compound 0.0003 µM, first compound 3 µM
[19] = second compound 0.000949 µM, first compound 0.00949 µM
[20] = second compound 0.000949 µM, first compound 0.03 µM
[21] = second compound 0.000949 µM, first compound 0.0949 µM
[22] = second compound 0.000949 µM, first compound 0.3 µM
[23] = second compound 0.000949 µM, first compound 0.949 µM
[24] = second compound 0.000949 µM, first compound 3 µM
[25] = second compound 0.003 µM, first compound 0.00949 µM
[26] = second compound 0.003 µM, first compound 0.03 µM
[27] = second compound 0.003 µM, first compound 0.0949 µM
[28] = second compound 0.003 µM, first compound 0.3 µM
[29] = second compound 0.003 µM, first compound 0.949 µM
[30] = second compound 0.003 µM, first compound 3 µM

SMILES | IC50 (second compound 30 pM) [nM] | IC50 (second compound 94.9 pM) [nM] | IC50 (second compound 0.0003 µM) [nM] | IC50 (second compound 0.000949 µM) [nM] | IC50 (second compound 0.003 µM) [nM] | viability, T/C [3] [%] | viability, T/C [4] [%] | viability, T/C [5] [%] | viability, T/C [6] [%] | viability, T/C [9] [%] | viability, T/C [10] [%] | viability, T/C [11] [%] | viability, T/C [12] [%] | viability, T/C [15] [%] | viability, T/C [16] [%] | viability, T/C [17] [%] | viability, T/C [18] [%] | viability, T/C [21] [%] | viability, T/C [22] [%] | viability, T/C [23] [%] | also measured
CNCc1ccc(-c2cc(-c3nc(-c4ccc(S(=O)(=O)C(C)C)cc4)cnc3N)on2)cc1 + COc1cc2c(cc1O)CCNC21CSC2c3c(OC(C)=O)c(C)c4c(c3C(COC1=O)N1C(O)C3Cc5cc(C)c(OC)c(O)c5C(C21)N3C)OCO4 | 571 | 223 | < 9.49 | < 9.49 | < 9.49 | 97.8 | 67.2 | 36.5 | 16.2 | 70.5 | 42.5 | 21.2 | 10.1 | 16.4 | 12.7 | 9.09 | 6.61 | 3.12 | 3.01 | 4.43 | viability, T/C [1]: 103%; viability, T/C [2]: 103%; viability, T/C [7]: 94.4%; viability, T/C [8]: 89%; viability, T/C [13]: 27.9%; viability, T/C [14]: 24.4%; viability, T/C [19]: 4.01%; viability, T/C [20]: 3.41%; viability, T/C [24]: 2.48%; viability, T/C [25]: 0.56%; viability, T/C [26]: 1.11%; viability, T/C [27]: 1.21%; viability, T/C [28]: 0.84%; viability, T/C [29]: 0.9%; viability, T/C [30]: 0.8%
Cc1sc2c(c1C)C(c1ccc(Cl)cc1)=NC(CC(=O)Nc1ccc(O)cc1)c1nnc(C)n1-2 (stereo not given) + COc1cc2c(cc1O)CCNC21CSC2c3c(OC(C)=O)c(C)c4c(c3C(COC1=O)N1C(O)C3Cc5cc(C)c(OC)c(O)c5C(C21)N3C)OCO4 | 265 | 148 | < 9.49 | < 9.49 | < 9.49 | 104 | 43.3 | 17.1 | 8.32 | 60.6 | 30.8 | 9.48 | 5.87 | 22.7 | 4.78 | 2.87 | 3.05 | 1.98 | 2.62 | 1.67 | viability, T/C [1]: 104%; viability, T/C [2]: 108%; viability, T/C [7]: 100%; viability, T/C [8]: 95.4%; viability, T/C [13]: 29.3%; viability, T/C [14]: 23.2%; viability, T/C [19]: 3.88%; viability, T/C [20]: 2.86%; viability, T/C [24]: 2.3%; viability, T/C [25]: 0.46%; viability, T/C [26]: 0.43%; viability, T/C [27]: 0.51%; viability, T/C [28]: 0.57%; viability, T/C [29]: 0.25%; viability, T/C [30]: 0.65%
Cn1ncnc1[C@H]1c2n[nH]c(=O)c3cc(F)cc(c23)N[C@@H]1c1ccc(F)cc1 + COc1cc2c(cc1O)CCNC21CSC2c3c(OC(C)=O)c(C)c4c(c3C(COC1=O)N1C(O)C3Cc5cc(C)c(OC)c(O)c5C(C21)N3C)OCO4 | 35.5 | < 9.49 | < 9.49 | < 9.49 | < 9.49 | 28.6 | 11.9 | 6.01 | 3.44 | 15.5 | 7.46 | 5.44 | 2.76 | 5.49 | 4.25 | 5.23 | 2.79 | 2.85 | 3.24 | 2.36 | viability, T/C [1]: 80.3%; viability, T/C [2]: 53.5%; viability, T/C [7]: 47.9%; viability, T/C [8]: 28.1%; viability, T/C [13]: 11.8%; viability, T/C [14]: 7.22%; viability, T/C [19]: 2.86%; viability, T/C [20]: 3.01%; viability, T/C [24]: 1.56%; viability, T/C [25]: 0.64%; viability, T/C [26]: 0.8%; viability, T/C [27]: 0.45%; viability, T/C [28]: 0.68%; viability, T/C [29]: 1.05%; viability, T/C [30]: 0.79%
O=C(c1cc(Cc2n[nH]c(=O)c3ccccc23)ccc1F)N1CCN(C(=O)C2CC2)CC1 + COc1cc2c(cc1O)CCNC21CSC2c3c(OC(C)=O)c(C)c4c(c3C(COC1=O)N1C(O)C3Cc5cc(C)c(OC)c(O)c5C(C21)N3C)OCO4 | 3300 | 1900 | < 94.9 | < 94.9 | < 94.9 | 99.7 | 98.4 | 92.7 | 53.4 | 85.8 | 82.7 | 70.5 | 37.2 | 15.1 | 16.9 | 12.9 | 7.99 | 2.17 | 2.25 | 2.87 | viability, T/C (second compound 30 pM, first compound 9.49 µM): 14.2%; viability, T/C (second compound 30 pM, first compound 30 µM): 9.96%; viability, T/C (second compound 94.9 pM, first compound 9.49 µM): 7.9%; viability, T/C (second compound 94.9 pM, first compound 30 µM): 7.02%; viability, T/C (second compound 0.0003 µM, first compound 9.49 µM): 5.74%; viability, T/C (second compound 0.0003 µM, first compound 30 µM): 4.63%; viability, T/C [24]: 2.49%; viability, T/C (second compound 0.000949 µM, first compound 9.49 µM): 2.27%; viability, T/C (second compound 0.000949 µM, first compound 30 µM): 2.54%; viability, T/C [27]: 6.83%; viability, T/C [28]: 0.52%; viability, T/C [29]: 0.47%; viability, T/C [30]: 0.53%; viability, T/C (second compound 0.003 µM, first compound 9.49 µM): 0.55%; viability, T/C (second compound 0.003 µM, first compound 30 µM): 0.95%
